Laboratory results reported in US20110268729A1, “TREATMENT OF AMYOTROPHIC LATERAL SCLEROSIS BY NOGO-A-ANTAGONIST” (priority 2008, published 2011).

System: SOD1^G93A mice
Assay: In vivo ALS model muscle physiology study with 2A10 and riluzole
Set-up: species or system mouse
Experimental: Fresh solutions were prepared once a week with the total consumed volume measured in order to ensure a constant daily and weekly dose.

In the case of Nc1nc2ccc(OC(F)(F)F)cc2s1 [Riluzole, 2-Amino-6-(trifluoromethoxy)benzothiazole], the “TA maximum tetanic force” value (day 90, relative to SOD1-B vehicle group, riluzole 30 mg/kg p 0.0607, anti-Nogo-A 30 mg/kg p 0.1219, combination p 0.039) is reported as “failed to reach statistical significance” and the “TA time to 1/2 relaxation” value (day 90, vs SOD1 vehicle, riluzole plus 3 mg/kg anti-Nogo-A p value 0.0212) is reported as “trend to normalisation”.
